In ChEMBL document CHEMBL4385632, “Synthesis of novel benzothiazole amides: Evaluation of PPAR activity and anti-proliferative effects in paraganglioma, pancreatic and colorectal cancer cell lines” (2019):
Calls of active or inactive are those of the source. No cut-off for these calls is given here.

What was measured:
[1] = target: T1, Peroxisome proliferator-activated receptor alpha (Homo sapiens) (UniProt Q07869); experiment: Antagonist activity at GAL4-tagged human PPARalpha LBD expressed in human HepG2 cells assessed as inhibition of Wy14,643-induced receptor transactivation at 25 uM incubated for 20 hrs by luciferase reporter gene assay relative to control; type: cell-based
T1 sequence (whole entry): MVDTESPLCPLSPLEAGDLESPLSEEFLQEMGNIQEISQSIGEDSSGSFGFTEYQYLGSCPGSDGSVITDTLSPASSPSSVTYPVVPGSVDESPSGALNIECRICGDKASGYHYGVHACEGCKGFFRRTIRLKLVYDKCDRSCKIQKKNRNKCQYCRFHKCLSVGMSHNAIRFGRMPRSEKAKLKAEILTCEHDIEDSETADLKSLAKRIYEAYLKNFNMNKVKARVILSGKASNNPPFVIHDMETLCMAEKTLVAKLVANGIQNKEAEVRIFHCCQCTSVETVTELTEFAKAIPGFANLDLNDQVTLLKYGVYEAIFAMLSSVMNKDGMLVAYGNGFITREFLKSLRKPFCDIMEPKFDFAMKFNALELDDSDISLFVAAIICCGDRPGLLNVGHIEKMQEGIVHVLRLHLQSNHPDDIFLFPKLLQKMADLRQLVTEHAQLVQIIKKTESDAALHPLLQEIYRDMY

[2] = target: T2, Peroxisome proliferator-activated receptor gamma (Homo sapiens) (UniProt P37231); experiment: Antagonist activity at GAL4-tagged human PPARgamma LBD expressed in human HepG2 cells assessed as inhibition of rosiglitazone-induced receptor transactivation at 25 uM incubated for 20 hrs by luciferase reporter gene assay relative to control; type: cell-based
T2 sequence (whole entry): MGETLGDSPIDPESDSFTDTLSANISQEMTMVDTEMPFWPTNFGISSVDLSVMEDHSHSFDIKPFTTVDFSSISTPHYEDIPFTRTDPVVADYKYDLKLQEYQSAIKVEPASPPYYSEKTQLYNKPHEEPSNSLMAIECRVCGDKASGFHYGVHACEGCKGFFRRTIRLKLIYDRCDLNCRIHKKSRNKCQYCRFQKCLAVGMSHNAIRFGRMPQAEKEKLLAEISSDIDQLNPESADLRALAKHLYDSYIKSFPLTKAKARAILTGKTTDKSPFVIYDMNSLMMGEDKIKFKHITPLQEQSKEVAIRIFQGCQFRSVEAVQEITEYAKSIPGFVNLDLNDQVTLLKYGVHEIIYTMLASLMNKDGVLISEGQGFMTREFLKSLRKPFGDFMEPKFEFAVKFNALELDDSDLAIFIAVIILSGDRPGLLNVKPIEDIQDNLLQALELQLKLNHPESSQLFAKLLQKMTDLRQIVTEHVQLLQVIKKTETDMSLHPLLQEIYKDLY

[3] = target: T3, Peroxisome proliferator-activated receptor delta (Homo sapiens) (UniProt Q03181); experiment: Antagonist activity at GAL4-tagged human PPARdelta LBD expressed in human HepG2 cells assessed as inhibition of L-165,041-induced receptor transactivation at 25 uM incubated for 20 hrs by luciferase reporter gene assay relative to control; type: cell-based
T3 sequence (whole entry): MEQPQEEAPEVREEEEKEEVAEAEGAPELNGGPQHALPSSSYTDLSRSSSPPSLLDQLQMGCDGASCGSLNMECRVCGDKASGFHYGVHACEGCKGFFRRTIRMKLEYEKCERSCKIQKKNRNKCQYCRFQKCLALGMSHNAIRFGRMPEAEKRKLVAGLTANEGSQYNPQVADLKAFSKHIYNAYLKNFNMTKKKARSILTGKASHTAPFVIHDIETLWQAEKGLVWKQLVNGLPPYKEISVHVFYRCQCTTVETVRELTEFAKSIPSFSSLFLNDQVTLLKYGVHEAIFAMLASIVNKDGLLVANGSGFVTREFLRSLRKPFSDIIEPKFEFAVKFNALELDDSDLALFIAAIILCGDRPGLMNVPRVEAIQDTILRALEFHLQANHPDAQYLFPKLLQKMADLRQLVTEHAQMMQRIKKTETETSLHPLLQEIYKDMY

[4] = test system: ASPC1; experiment: Cytotoxicity against human AsPC1 cells assessed as reduction in cell viability at 75 uM incubated for 72 hrs by MTT assay; type: functional; conditions: for inhibition at 75 µM: ASPC1, 72 h
[5] = test system: Capan-2; experiment: Cytotoxicity against human Capan2 cells assessed as reduction in cell viability at 75 uM incubated for 72 hrs by MTT assay; type: functional; conditions: for inhibition at 75 µM: Capan-2, 72 h
[6] = test system: HT-29; experiment: Cytotoxicity against human HT-29 cells assessed as reduction in cell viability at 75 uM incubated for 72 hrs by MTT assay; type: functional; conditions: for inhibition at 75 µM: HT-29, 72 h
[7] = test system: SW480; experiment: Cytotoxicity against human SW480 cells assessed as reduction in cell viability at 75 uM incubated for 72 hrs by MTT assay; type: functional; conditions: for inhibition at 75 µM: SW480, 72 h
[8] = (§1) Cytotoxicity against human PTJ64i cells assessed as reduction in cell viability at 75 uM incubated for 72 hrs by MTT assay; type: functional
[9] = (§2) Cytotoxicity against human PTJ86i cells assessed as reduction in cell viability at 75 uM incubated for 72 hrs by MTT assay; type: functional
[10] = species: Homo sapiens; experiment: Cytotoxicity against human PTJ64i cells assessed as reduction in cell viability incubated for 72 hrs by MTT assay; type: functional, cell-based
[11] = species: Homo sapiens; experiment: Cytotoxicity against human PTJ86i cells assessed as reduction in cell viability incubated for 72 hrs by MTT assay; type: functional, cell-based
[12] = Inhibition of colony formation in human PTJ64i cells assessed as plating efficiency at 24 uM incubated for 13 days by crystal violet staining based assay (Rvb=10.75%); type: functional; parameters: scale not given: the % may be the effect or the level left
[13] = Inhibition of colony formation in human PTJ64i cells assessed as surviving fraction at 24 uM incubated for 13 days by crystal violet staining based assay (Rvb=100%); type: functional; conditions: 312 h, read-out: Survival
[14] = Inhibition of colony formation in human PTJ86i cells assessed as plating efficiency at 24 uM incubated for 13 days by crystal violet staining based assay (Rvb=30.25%); type: functional; parameters: scale not given: the % may be the effect or the level left
[15] = Inhibition of colony formation in human PTJ86i cells assessed as surviving fraction at 24 uM incubated for 13 days by crystal violet staining based assay (Rvb=100%); type: functional; conditions: 312 h, read-out: Survival
[16] = species: Homo sapiens; experiment: as §1; type: functional
[17] = species: Homo sapiens; experiment: as §2; type: functional

Compound | %max [1] [%] | %max [2] [%] | %max [3] [%] | inhibition at 75 µM [4] [%] | inhibition at 75 µM [5] [%] | inhibition at 75 µM [6] [%] | inhibition at 75 µM [7] [%] | inhibition at 75 µM [8] [%] | inhibition at 75 µM [9] [%] | further results
O=C(NCc1ccccc1)C(Sc1nc2cc(Cl)ccc2s1)c1ccccc1 (stereo not given) | 35 | < 2 | < 2 | ≤ 50 | ≤ 50 | ≤ 50 | ≤ 50 | ≥ 50 | ≥ 50 | 
O=C(NCCc1ccccc1)C(Sc1nc2cc(Cl)ccc2s1)c1ccccc1 (stereo not given) | 57 | < 2 | < 2 | ≤ 74 | ≤ 74 | ≤ 50 | ≤ 50 | ≥ 50 | ≥ 50 | 
O=C(Nc1ccccc1)C(Sc1nc2cc(Cl)ccc2s1)c1ccccc1 (stereo not given) | 22 | < 2 | < 2 | ≤ 75 | ≤ 75 | ≤ 68 | ≤ 68 | > 90 | > 90 | inhibition [10]: Dose-dependent effect; inhibition [11]: Dose-dependent effect; Activity [12]: 2.5%; viability at 24 µM [13]: 23.3%; Activity [14]: 5.5%; viability at 24 µM [15]: 18.2%
CCC(=O)NC[C@H](Cc1ccc(OCCc2nc(-c3ccccc3)oc2C)cc1)N/C(C)=C\C(=O)c1ccc(C(F)(F)F)cc1 |  |  |  |  |  |  |  |  |  | inhibition [4]: Active; inhibition [5]: Active; inhibition [6]: Active; inhibition [7]: Active; inhibition [16]: Active; inhibition [17]: Active

Now from value to compound, other results behind:

%max [1] [%] | %max [2] [%] | %max [3] [%] | Compound | inhibition at 75 µM [4] [%] | inhibition at 75 µM [5] [%] | inhibition at 75 µM [6] [%] | inhibition at 75 µM [7] [%] | inhibition at 75 µM [8] [%] | inhibition at 75 µM [9] [%] | further results
31 | < 2 | < 2 | CCCCNC(=O)C(Sc1nc2cc(Cl)ccc2s1)c1ccccc1 (stereo not given) | ≤ 50 | ≤ 50 | ≤ 50 | ≤ 50 | ≥ 50 | ≥ 50 | 
22 | < 2 | < 2 | CC(=O)Nc1ccc(NC(=O)C(Sc2nc3cc(Cl)ccc3s2)c2ccccc2)cc1 (stereo not given) | ≤ 50 | ≤ 50 | ≤ 50 | ≤ 50 | ≥ 50 | ≥ 50 | 
45 | < 2 | < 2 | CC(NC(=O)C(Sc1nc2cc(Cl)ccc2s1)c1ccccc1)c1ccccc1 (stereo not given) | ≤ 50 | ≤ 50 | ≤ 50 | 60 | ≥ 50 | ≥ 50 | 
46 | < 2 | < 2 | O=C(NCCCc1ccccc1)C(Sc1nc2cc(Cl)ccc2s1)c1ccccc1 (stereo not given) | ≤ 50 | ≤ 50 | ≤ 63 | ≤ 63 | ≥ 50 | ≥ 50 | 
